IC50 data for six compounds are collected here from ChEMBL document CHEMBL1129168, “Synthesis and antiviral activity of new phosphonobutoxypurines” (Bioorg Med Chem Lett, 1996).

In brackets after ≈: the same amount, converted by molar mass. Some results are limits rather than exact numbers.

Assay [1] concerns Human alphaherpesvirus 1. In words: Compound was tested in vitro for antiviral activity against Herpes simplex virus-Type 1 in SC 16 cells. It counts as functional, organism-based.
Assay [2] has as its system MRC5. In words: Compound was tested in vitro for antiviral activity against Herpes viruses(HSV-2, VZV) in human fibroblast (MRC-5) cells. It counts as functional, cell-based.
The test system of assay [3] is Human alphaherpesvirus 2. As to the kind of experiment: Compound was tested in vitro for antiviral activity against Herpes simplex virus-Type 2 in MS cells. It counts as functional, organism-based. The following applies: Human alphaherpesvirus 2, MS.
For assay [4], the species on record is Homo sapiens. As to the kind of experiment: Compound was tested for its activity against HIV replication in human peripheral blood lymphocytes (PBLs) using MTT-based cytotoxicity assay. The assay is classed as functional, organism-based.
Assay [5] has as its system D34. As to the kind of experiment: Compound was tested in vitro for antiviral activity against Human immunodeficiency virus type-1 in D34 cells. It counts as functional, cell-based.
The test system of assay [6] is Human alphaherpesvirus 3. In words: Compound was tested in vitro for antiviral activity against Varicella zoster virus (VZV) in ellen cells. The assay is classed as functional, organism-based.

The IC50 is the point on the concentration scale where inhibition reaches its midpoint. The low end stands for inhibition by little substance, the high end for a need for much substance. On to `Nc1nc(O)c2ncn(OCCCCP(=O)(O)O)c2n1`, for which the IC50 is greater than 100 µg/mL in assay [1]; 1.6 µg/mL (≈ 5.28 µM) in assay [2]; 23 µg/mL (≈ 75.9 µM) in assay [3]; greater than 100 µM in assay [4]; 0.01 µM in assay [5]; 6 µg/mL (≈ 19.8 µM) in assay [6].

For the compound `Nc1ncnc2c1ncn2OCC(CO)CCP(=O)(O)O` (stereo unspecified), the IC50 was greater than 100 µg/mL in assay [1]; greater than 100 µg/mL in assay [2]; greater than 100 µg/mL in assay [3]; greater than 100 µM in assay [5]; greater than 100 µg/mL in assay [6].

Consider `Nc1nc(N)c2ncn(OCC(CO)CCP(=O)(O)O)c2n1` (stereo unspecified), for which the IC50 in assay [1] is greater than 100 µg/mL; in assay [2], 78 µg/mL (≈ 235 µM); in assay [3], greater than 100 µg/mL; in assay [6], 17 µg/mL (≈ 51.2 µM).

With `Nc1ncnc2c1ncn2OCCCCP(=O)(O)O`, the IC50 was greater than 100 µg/mL in assay [1]; 58 µg/mL (≈ 202 µM) in assay [2]; greater than 100 µg/mL in assay [3]; greater than 100 µM in assay [5]; greater than 100 µg/mL in assay [6].

As to `Nc1nc(N)c2ncn(OCCCCP(=O)(O)O)c2n1`, the concentration for half-maximal inhibition (IC50) is greater than 100 µg/mL in assay [1]; 26 µg/mL (≈ 86 µM) in assay [2]; greater than 100 µg/mL in assay [3]; greater than 100 µM in assay [4]; 1 µM in assay [5]; 17 µg/mL (≈ 56.2 µM) in assay [6].

For `Nc1nc(O)c2ncn(OCC(CO)CCP(=O)(O)O)c2n1` (stereo unspecified), the IC50 in assay [1] was greater than 100 µg/mL; in assay [2], 8.8 µg/mL (≈ 26.4 µM); in assay [3] it was greater than 100 µg/mL; in assay [5], greater than 100 µM; in assay [6] it was 5 µg/mL (≈ 15 µM).
